Experiments:
human mast cells [1] = assay: Inhibition of histamine release from human mast cells; assay type: cell-based; settings: IgE challenged human cord derived mast cells, 5 min incubation, FIG. 1
Method: Protocol: Human derived cord mast cells were cultured using the following method. Commercially available CD34^+ stem cells were cultured for […] in StemSpan (StemCell Technologies, Grenoble, France) serum-free medium supplemented with 100 ng/ml human SCF, 50 ng/ml IL-6 and 1 ng/ml IL-3, and 100 μg/ml penicillin/streptomycin (Peprotech, London, UK). After eight weeks, cells were cultured in StemSpan with 10% FCS. The cells were passaged into new medium every week. Cells were used for experiments between 11 and 18 weeks following confirmation by microscopic examination, c-kit and FcRε1 staining (by FACS), of mast cell morphology. For assessment of drug effects, Nalidixic Acid was incubated for 5 min with aliquots of 2×10^5 CDMCs (cord derived mast cells) cultured in 10% FCS medium. A commercially-available enzyme immunoassay was used to detect and quantify histamine released in the supernatant (SPI bio, Strasbourg, France). The assay was conducted following the manufacturer protocols. A standard curve ranging from 0.39-50 nM histamine was prepared using the reagent provided and the optical density was then read within 60 min in a microplate reader (at 405 nm). In some cases, the total cell content of histamine was established by freeze thawing of cells prior to challenge

human mast cells [2] = assay: Inhibition of Prostaglandin D2 release from human mast cells; assay type: cell-based; settings: IgE challenged human cord derived mast cells, FIG. 2
Method: Human cord derived mast cells were cultured using the methodology described in Example 1. A commercially-available enzyme immunoassay (Cayman Chemical, Michigan, USA) was used to detect and quantify PGD2 released in the supernatant. The assay was conducted following the manufacturer protocols. A standard curve ranging from 78-10,000 pg/ml PGD2 was prepared using the reagent provided and the optical density was then read within 60 min in a microplate reader (at 405 nm).

human mast cells [3] = assay: Release of Annexin-A1 from human mast cells (ELISA); assay type: cell-based; settings: increasing concentrations of Nalidixic acid, conditioned medium, FIG. 3
Method: Human cord derived mast cells were cultured using the methodology described in Example 1. Anx-A1 protein levels in conditioned medium were determined by ELISA. Briefly, 96-well flat-bottomed ELISA plates (Greiner, Gloucestershire, UK) were coated with 1 μg anti-Anx-A1 mAb 1B in bicarbonate buffer (pH 9.6) and incubated overnight at 4° C. After washing in the bicarbonate buffer, potentially uncoated sites were blocked with 100 μL of PBS containing 1% BSA for 1h at room temperature. Sample aliquots (100 μL) or Anx-A1 standard solutions (prepared in 0.1% Tween-20 in PBS; concentration ranging between 10 and 0.001 μg/mL) were added for 1h at 37° C. After extensive washing in PBS/Tween-20, 100 μL of a polyclonal rabbit anti-human Anx-A1 serum (Zymed, Invitrogen, Paisley, UK; diluted 1:1000 in PBS/Tween-20) was added (1h at 37° C.) prior to incubation with donkey anti-rabbit 1 gG conjugated to alkaline phosphatase (1:1000; Sigma). The colour was developed by addition of 100 μL p-nitrophenyl phosphate (1 mg/mL in bicarbonate buffer, pH 9.6). Absorbance was read at 405 nm (with a 620-nm reference filter) in a microplate reader (Titertek™, Vienna, Austria). Anx-A1 levels in the study samples were read against the standard curve and expressed as ng/ml.

[4] = system: ovalbumin induced murine model of asthma; assay: Ovalbumin induced murine model of asthma, BALF eosinophils; assay type: in vivo, mouse; settings: female BALB/c mice, 0.3 mg/kg intranasal, OVA challenge
Method: The effects of locally administered Nalidixic acid were studied in a mouse model of asthma. Female BALB/c mice, 8 animals per group, were sensitised to ovalbumin (OVA, 10 mg) by intra-peritoneal injection on days 1 and 14 of the study. On days 20, 21, 22 and 23 animals either received a challenge dose of ovalbumin (50 μg) to the lung given by intranasal administration or 50 μl of phosphate buffered saline (PBS, non-challenged group). Animals challenged with OVA also received either PBS vehicle or Nalidixic acid (0.3 mg/kg of body weight) given by intranasal administration for inhalation into the lung. This was administered 30 minutes prior to and 6 hours post each ovalbumin challenge on days 21 to 23 and in addition on day 24, the day between the last challenge and the terminal day of the experiment. Forty-eight hours after the final OVA challenge, mice were anaesthetised with a combination of ketamine hydrochloride (Narketan, 2 mg/mouse) and xylazine hydrochloride (Rompun, 0.07 mg/mice) and sacrificed by carotid exsanguination.
Bronchoalveolar lavage fluid (BAL) was obtained as follows. The trachea was cannulated. Phosphate Buffered Saline (PBS) was used as the lavage fluid, 3 volumes (0.4 ml; 0.3 ml; 0.3 ml; total 1 mL) were gently instilled and withdrawn on 3 consecutive occasions using a 1 ml BD syringe and then placed in an Eppendorf tube (˜1 ml). […]

phosphatase PP2A = phosphatase PP2A (Homo sapiens, UniProt P67775); assay: Inhibition of the phosphatase PP2A; assay type: biochemical; settings: statement in summary, no method or data
Sequence of phosphatase PP2A (P67775 whole entry): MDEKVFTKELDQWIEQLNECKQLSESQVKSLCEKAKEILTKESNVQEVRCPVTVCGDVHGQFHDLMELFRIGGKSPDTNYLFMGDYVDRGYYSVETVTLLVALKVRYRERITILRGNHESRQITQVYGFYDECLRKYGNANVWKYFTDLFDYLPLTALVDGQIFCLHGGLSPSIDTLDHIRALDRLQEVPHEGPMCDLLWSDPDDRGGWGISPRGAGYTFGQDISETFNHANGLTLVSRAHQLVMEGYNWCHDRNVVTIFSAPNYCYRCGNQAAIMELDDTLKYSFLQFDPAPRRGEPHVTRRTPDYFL

CCn1cc(C(=O)O)c(=O)c2ccc(C)nc21 [Nalidixic acid]
inhibition of histamine release (human mast cells [1]): dose related inhibition
inhibition of PGD2 release (human mast cells [2]): dose related inhibition
Annexin-A1 released from human mast cells (human mast cells [3]): increase
decrease in total BALF eosinophil counts compared with challenged vehicle treated animals ([4]; p<0.05, FIG. 4): 47%
reduction of percentage of eosinophils of the total BALF cellular count versus vehicle treated group ([4]; p<0.05, FIG. 5): 44%
inhibition of the phosphatase PP2A (phosphatase PP2A): potent inhibitors
